Results reported in patent US5212173A, “Alkylaminoalkylamine and ether compounds, processes and intermediates for their preparation, and medicaments containing them” (Kali-Chemie Pharma GmbH, priority 1990, dated 1993).

Experiments:
colon = assay: Activity on spontaneous motility of the colon in anesthetized rats; format: in vivo, rat; conditions: 100 μmol/kg i.p.
Procedure: The effects of the test substances on the amplitudes and frequencies of gastric and intestinal contractions were measured by the following experimental method. Determination of the activity of the test substances on the spontaneous motility of the colon in anesthetized rats.
Fasting rats of the SIV 50 strain having a body weight of 180-250 g were anesthetized with a ketamine/xylazine mixture. The animals were tracheotomised and laparotomised. After applying a pylorus ligature, a stomach tube was inserted into the stomach and connected at the other end to a calibrated pressure transducer (Statham element P 23 ID) via a three-way tap. A corresponding tube was inserted rectally 8 to 9 cm into the colon and likewise connected, in the same manner, to a corresponding calibrated pressure transducer. The stomach of the animals was then filled with 2 to 3 ml of water via the tube. The pressure variations in the colon were recorded before and after administration of the test substances using a Watanabe multicorder (MC 641). The differences between the average amplitudes before and after the treatment were determined, and the percent change in the average amplitudes caused by the test substances relative to the values obtained before the treatment is reported in the following Table B.

[1] = in vivo, po, 1440 min
Procedure: Male mice weighing 20-25 g were orally administered maximum doses of 300 mg/kg of the test substance. The animals were carefully observed for toxic symptoms for three hours. All symptoms and deaths over a period of 24 hours after administration were also recorded. Accompanying symptoms were likewise observed and recorded. If death or strongly toxic symptoms was observed, increasingly smaller doses were administered to further mice until toxic symptoms no longer occurred. The lowest dose which caused death or strongly toxic symptoms is given as the minimum toxic dose in the following Table B.

[2] = tested on: isolated guinea pig ileum; assay: Spasmolytic action in vitro against potassium chloride-induced contraction on the isolated guinea pig ileum; format: cell-based; conditions: Cavia porcellus, 50 mmol/l KCl, Tyrode solution, 37° C., read-out: EC50 (approximately 50% reduction in the maximum potassium chloride-induced contraction)
From the text: In a physiological saline solution, isolated organ strips from the gastrointestinal tract such as gastric fundus, gastric antrum, duodenum, ileum, proximal colon and distal colon react to the addition of a spasmogen, for example potassium chloride solution, by contracting. This contraction of the organ strips, induced by the addition of spasmogen, is decreased by addition of the compounds of the invention. The extent of the regression of the contraction is an index of the spasmolytic activity of the compounds. Determination of spasmolytic activity against potassium chloride-induced spasms in isolated guinea pig ileum.
Female guinea pigs of the Wiga strain having a body weight of about 300 g were sacrificed. Organ strips from the ileum about 1 cm long were placed in an organ bath of Tyrode solution at 37° C. and mounted in a conventional apparatus for the isotonic measurement of changes in length. Tyrode solution is an aqueous solution containing 136.9 mmol of NaCl, 2.68 mmol of KCl, 2.31 mmol of CaCl2, 1.0 mmol of MgCl2, 11.9 mmol of NaHCO3, 1.45 mmol of NaH2 PO4 and 5.55 mmol of glucose per liter. After an equilibration phase of one hour, 50 mmol/l of potassium chloride were added to the bath fluid to test the sensitivity of the ileum strips. The strips were then rinsed again with Tyrode solution. 50 mmol/l of potassium chloride were then added to the bath fluid again to induce a contraction of the ileum strip due to spasm. As soon as the contraction of the ileum strip due to spasm has reached a constant maximum value, the test substance was added to the bath fluid, and the decrease in the contraction was recorded and calculated as a % of the constant maximum contraction.
The following table A gives the obtained by the test method described above. The example numbers given in the table for the compounds of formula I correspond to the numbers of the subsequent Preparation Examples. In Table A, the EC50 represents the concentration of the test substance in moles/liter in the bath fluid with which an approximately 50% reduction is achieved in the strength of the maximum spasmodic contraction induced in the ileum strip by potassium chloride.

| Structure (SMILES) | Action on spontaneous motility in the colon, % amplitude reduction (colon) | Minimum toxic dose in the mouse [1] | EC50 [2] |
| --- | --- | --- | --- |
| CC(C)[C@@H]1CC[C@@H](C)C[C@H]1OCCN(C)CCN1CCOCC1 [Example 1, N-[2-((1R,3R,4S)-1-methyl-4-isopropylcyclohex-3-yloxy)ethyl]-N-[2-(morpholin-1-yl)ethyl]-N-methylamine] | 55% | > 300 mg/kg | 12 µM |
| CC(C)COCCN(C)CCO[C@@H]1C[C@H](C)CC[C@H]1C(C)C [Example 2, N-[2-((1R,3R,4S)-1-methyl-4-isopropylcyclohex-3-yloxy)ethyl]-N-[2-(2,2-dimethylethoxy)ethyl]-N-methylamine] | 55% | > 300 mg/kg | 2 µM |
| CN(CCSCC[C@@H]1CC[C@H]2C[C@@H]1C2(C)C)CCN1CCOCC1 [Example 7, N-(2-[2-((1S,2S,5S)-6,6-dimethylbicyclo[3.1.1]hept-2-yl)ethylthio]ethyl)-N-[2-(morpholin-1-yl)ethyl]-N-methylamine] | – | – | 16 µM |
| CN(CCCCCOCC[C@@H]1CC[C@H]2C[C@@H]1C2(C)C)CCN1CCOCC1 [Example 10, N-(5-[2-((1S,2S,5S)-6,6-dimethylbicyclo[3.1.1]hept-2-yl)ethoxy]pentyl)-N-[2-(morpholin-1-yl)ethyl]-N-methylamine] | – | – | 30 µM |
| CC(C)COCCNCCO[C@@H]1C[C@H](C)CC[C@H]1C(C)C [Example 16, N-[2-((1R,3R,4S)-1-methyl-4-isopropylcyclohex-3-yloxy)ethyl]-N-[2-(2,2-dimethylethoxy)ethyl]amine] | – | – | 4.9 µM |
| COc1cc(CN(C)CCN(C)CCO[C@@H]2C[C@H](C)CC[C@H]2C(C)C)cc(OC)c1OC [Example 19, N-[2-((1R,3R,4S)-1-methyl-4-isopropylcyclohex-3-yloxy)ethyl]-N-(2-[N'-(3,4,5-trimethoxybenzyl)-N'-methylamino]ethyl)-N-methylamine] | 74% | – | 0.54 µM |
| CC(C)N(CCOCC[C@@H]1CC[C@H]2C[C@@H]1C2(C)C)CCN1CCOCC1 [Example 20] | 69% | > 300 mg/kg | 7.9 µM |
| COc1ccc(CCN(C)CCN(C)CCOCC[C@@H]2CC[C@H]3C[C@@H]2C3(C)C)cc1OC [Example 21] | 62% | 300 mg/kg | 3.6 µM |
| CCOCCN(C)CCOCC[C@@H]1CC[C@H]2C[C@@H]1C2(C)C [Example 22] | 85% | 100 mg/kg | 8.7 µM |
| COc1ccc(CN(CCN(C)CCO[C@@H]2C[C@H](C)CC[C@H]2C(C)C)C(C)C)cc1OC [Example 23] | – | – | 1.5 µM |
| CC(C)[C@H]1CC[C@H](C)C[C@@H]1OCCN(C)CCN1CCOCC1 [Example 24] | – | – | 14 µM |
| CC(C)[C@@H]1CC[C@@H](C)C[C@H]1OCCN(C)CCN1CCCC1 [Example 32] | – | – | 20 µM |
| CC(C)[C@@H]1CC[C@@H](C)C[C@H]1OCCN(C)CCN1CCN(C)CC1 [Example 34] | – | – | 47 µM |
| CC(C)[C@@H]1CC[C@@H](C)C[C@H]1OCCN(C)CCOCc1ccccc1 [Example 35] | – | – | 1.9 µM |
| CC(C)[C@@H]1CC[C@@H](C)C[C@H]1OCCN(C)CCCCCCN1CCOCC1 [Example 36] | – | – | 43 µM |
| CN(CCO[C@H]1C(C)(C)[C@@H]2CC[C@@]1(C)C2)CCN1CCOCC1 [Example 37] | – | – | 26 µM |
| CN(CCO[C@@H]1C[C@@H]2CC[C@@]1(C)C2(C)C)CCN1CCOCC1 [Example 38] | – | – | 19 µM |
| CC(C)[C@@H]1CC[C@@H](C)C[C@H]1OCCN(C)CCNCc1ccc(Cl)c(Cl)c1 [Example 44] | – | – | 2.4 µM |
| CC(C)[C@@H]1CC[C@@H](C)C[C@H]1OCCN(C)CCN(C)CCc1ccccc1Cl [Example 46] | – | – | 4.8 µM |
| CC(C)[C@@H]1CC[C@@H](C)C[C@H]1OCCN(C)CCN(Cc1ccccc1)Cc1ccccc1 [Example 48] | 85% | – | 0.68 µM |
| CC(C)[C@@H]1CC[C@@H](C)C[C@H]1OCCN(C)CCN(C)CCCCc1ccccc1 [Example 50] | – | – | 1.3 µM |
